Experimental data published in PMC5457661, “Dysregulation of lysophosphatidic acids in multiple sclerosis and autoimmune encephalomyelitis” (Acta Neuropathologica Communications, 2017).
“Also recorded” adds a separate entry of the source. Where two headings read alike, the source gives them in different places. One block for each compound: values may come before it.

Legend:
LPAR2 [1] = molecular target: T1, LPAR2 (Homo sapiens, UniProt Q9HBW0); assay: LPA receptor activation, aequorin-GFP calcium luminescence in COS-1 cells co-transfected with Gα15; assay type: cell-based
T1 construct: plasmids containing the indicated receptor cDNA or control (empty vector, mock); expressed in transfected cells; host or cells: COS-1
T1 sequence (Q9HBW0 whole entry): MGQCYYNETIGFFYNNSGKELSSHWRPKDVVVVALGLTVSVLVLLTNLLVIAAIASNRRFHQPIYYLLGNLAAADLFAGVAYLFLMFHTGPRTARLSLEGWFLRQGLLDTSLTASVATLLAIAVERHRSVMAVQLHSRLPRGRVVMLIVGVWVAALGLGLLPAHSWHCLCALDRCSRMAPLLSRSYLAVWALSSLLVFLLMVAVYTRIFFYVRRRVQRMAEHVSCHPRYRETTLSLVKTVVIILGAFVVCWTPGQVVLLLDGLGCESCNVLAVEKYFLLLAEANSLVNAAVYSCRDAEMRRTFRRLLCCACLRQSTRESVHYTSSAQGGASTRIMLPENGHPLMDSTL
Method: (§1) To study the activation profile of heterologously expressed LPA receptors, COS-1 cells were seeded in 96-well plates at a density of 50.000 cells/well. Next day, they were co-transfected with plasmids containing cDNA for a calcium-sensitive bioluminescent fusion protein between aequorin and GFP [3] and plasmids containing the indicated receptor cDNA or control (empty vector, mock) together with the promiscuous Gα15 [42] at a concentration of 50 ng/well by using FuGENE 6 reagent (Promega) according to manufacturer’s instructions. Forty-eight hours later, cells were loaded with 5 μM coelenterazine h (Invitrogen) in HBSS buffer containing 1.8 mM CaCl2 and 10 mM glucose for 2 h at 37 °C. Measurements were performed by using a luminometric plate reader (Flexstation 3) for 100 s following ligand stimulation. The area under each calcium transient was calculated by using SoftMaxPro software and expressed as area under the curve (AUC). The following lipids were used for stimulation: 1-Palmitoyl-LPA (LPA16:0), 1-oleoyl-LPA (LPA18:1), 1-stearoyl-LPA (LPA18:0), 1-lineoyl-LPA (LPA18:2), 1-arachidonoyl-LPA (LPA20:4). LPA16:0 and 18:1 were from Cayman, the others from AvantiPolar Lipids.

[2] = Plasma concentration time courses and basic pharmacokinetics of the LPAR2 agonist (LC-MS/MS); assay type: in vivo, SJL/J mice
Method: (§2) Female SJL/J mice (Envigo, Germany), aged 10–12 weeks at immunization were used for study of relapsing-remitting EAE and female TCR^1640 mice for spontaneous RR-EAE [45]. Female C57BL6/J mice and LPAR2^−/− mice and LPAR2^+/+ littermates were used for the study of primary progressive EAE. LPAR2^−/− mice have a mixed C57BL6/J x Sv129 background with about 25% Sv129. Mice were housed at 3–5 mice per cage at constant room temperature (21 ± 1 °C) under a regular 12 h light/dark schedule. Food and water were available ad libitum. Animals were treated orally via the drinking water with FTY720 (fingolimod) at 0.5 mg/kg/d starting 3 days after immunization for preventive treatment. Monoclonal anti-Itga4 antibody treatment (natalizumab) in SJL/J mice consisted in 3 intraperitoneal injections (1x200 μg, 2x 150 μg) on day 11, 14 and 19. The LPAR2 agonist GRI 977143 was administered perorally in cornflakes soaked with 10% sucrose/10% DMSO in water with 100 μg/mouse/d of the drug starting 3d after immunization. Control animals received the respective vehicle. Oral bioavailability (F) of the LPAR2 agonist and basic kinetics were assessed by LC-MS/MS analysis of plasma concentrations. Tmax and Cmax were directly taken from the plasma concentration time courses. AUCs were calculated according to the linear trapezoidal rule. The clearance was calculated as Cl = Dose*F/AUCs and the half-life, t1/2 = ln2/λ, where λ is the terminal decay constant.

RR-EAE SJL/J mice = assay: Relapsing-remitting EAE (PLP139-151/CFA/PTX immunization), clinical scores, body weight, spinal cord immunofluorescence; assay type: in vivo
Method: as §2
C57BL6/J and LPAR2 mice were immunized according to a standard protocol using the Hooke Kit™ MOG35-55/CFA emulsion PTX (EK-2110, Hooke Labs, St Lawrence, MA), which contains 200 μg myelin oligodendrocyte glycoprotein (MOG) 35–55 emulsified in 200 μl Complete Freund’s Adjuvant (CFA). The emulsion was injected subcutaneously at two sites followed by two intraperitoneal (i.p.) injections of 200 ng pertussis toxin (PTX) in phosphate buffered saline (PBS), the first 1–2 h after MOG35-55, and the second 24 h later. SJL mice were immunized using Hooke Kit™ PLP139-151/CFA emulsion PTX (EK-2120), which contains 200 μg myelin proteolipid protein (PLP) 139–151 in 200 μl CFA (Hooke Labs, US). Injections of the emulsion and PTX were done as described for C57BL6 mice.
EAE scores were assessed daily to evaluate the severity and extent of motor function deficits. Score 0, normal motor functions; score 0.5, distal paralysis of the tail; score 1, complete tail paralysis; score 1.5, mild paresis of one or both hind legs; score 2, severe paresis of hind legs; score 2.5, complete paralysis of one hind leg; score 3, complete paralysis of both hind legs; score 3.5, complete paralysis of hind legs and paresis of one front leg. Serum and tissues were sampled after the second peak, 35–36 days after immunization.
Mice were terminally anaesthetized with isoflurane and cardially perfused with cold 0.9% NaCl, followed by 4% paraformaldehyde (PFA) in 1x PBS for fixation. […]
Tiled images of individual sections were captured with equal filter and acquisition parameters to assure comparability independent of genotype or treatment and subsequently stitched to cover the complete ventral horn of the spinal cord. Iba1+ and CD11b + microglia/macrophages in the gray matter and white matter were quantified using the particle counter plugin of FIJI ImageJ. […] Three or more non-overlapping images of 3 mice were analyzed per group.

LPAR1, 2, 3 or 4 [3] = molecular target: T2, LPAR1, 2, 3 or 4 (Homo sapiens, UniProt Q9HBW0); assay: LPA receptor activation panel in COS cells with heterologous expression of LPAR1, 2, 3 or 4 plus Gα15, mock controls; assay type: cell-based; conditions: COS cells with heterologous expression of LPAR1, 2, 3 or 4
T2 construct: expressed in transfected cells; host or cells: COS-1
T2 sequence (Q9HBW0 whole entry): as above
Method: as §1

LPAR2 [4] = molecular target: T1, LPAR2; design: method as in not given; conditions: reported value; ref not given; cited from earlier work
LPAR1 = molecular target: T3, LPAR1 (Homo sapiens, UniProt Q92633); assay: LPA receptor activation, aequorin-GFP calcium luminescence in COS-1 cells co-transfected with Gα15; assay type: cell-based; conditions: compared with other LPAs
T3 construct: plasmids containing the indicated receptor cDNA or control (empty vector, mock); expressed in transfected cells; host or cells: COS-1
T3 sequence (Q92633 whole entry): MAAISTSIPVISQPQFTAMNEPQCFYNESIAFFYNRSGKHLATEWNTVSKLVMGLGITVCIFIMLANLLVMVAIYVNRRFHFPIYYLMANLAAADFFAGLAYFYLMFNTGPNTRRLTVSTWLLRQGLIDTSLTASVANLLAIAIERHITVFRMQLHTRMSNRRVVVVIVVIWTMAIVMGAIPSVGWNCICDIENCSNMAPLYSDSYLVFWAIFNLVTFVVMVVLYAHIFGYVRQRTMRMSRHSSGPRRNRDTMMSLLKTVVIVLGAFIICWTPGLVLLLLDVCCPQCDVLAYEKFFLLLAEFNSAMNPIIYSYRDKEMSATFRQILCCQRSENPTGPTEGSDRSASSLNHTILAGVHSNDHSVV
Method: as §1

LPAR1, 2, 3 or 4 [5] = assay: LPA receptor activation panel in COS cells with heterologous expression of LPAR1, 2, 3 or 4 plus Gα15, mock controls; assay type: cell-based, human; conditions: for LPAR activation (agonist activity): calcium transient AUC, all heterologously expressed LPARs
Method: as §1

autotaxin [6] = molecular target: T4, autotaxin (Mus musculus, UniProt Q9R1E6); assay: LPA plasma concentration in naïve mice after autotaxin inhibitor; assay type: in vivo; conditions: i.p. 30 min before plasma sampling
T4 construct: from tissue; host or cells: living naïve mice, plasma sampled
Method: Quantitative LPA analysis was performed with liquid chromatography-electrospray ionization-tandem mass spectrometry (LC-ESI-MS/MS) with a hybrid triple quadrupole-ion trap QTrap 5500 mass spectrometer (AB Sciex, Germany) as described without knowledge of clinical data or treatment groups. Briefly, 2 cycles of liquid-liquid extraction of LPAs were done with 1-buthanol after adding the internal standard LPA17:0 (50 μl sample, 20 μl internal standard in 500 μl 1-butanol). The combined organic phases were dried under a gentle stream of nitrogen at 45 °C and subsequently re-dissolved in 200 μl methanol. A C18 column (Mercury 20 x 2 mm, 3 μm, 100 Å) and precolumn were used for chromatographic separation. A linear gradient was employed at a flow rate of 400 μl/min. Mobile phase A was water with ammonium formate 50 mM and formic acid (100:0.2, v/v) and mobile phase B acetonitrile/formic acid (100:0.1, v/v). The mass spectrometer operated in the negative ion mode and used multiple reaction monitoring (MRM). The mass transitions were m/z 409 → 79 (LPA 16:0), m/z 437 → 153 (LPA 18:0), m/z 431 → 79 (LPA 18:3) and m/z 457 → 153 (LPA 20:4) all with a dwell time of 50 ms. The internal standard method was used for quantification with Analyst Software V1.5 (Applied Biosystems, Germany). The calibration curve was linear over the range of 0.1–500 ng/ml and accuracy was >95%.

autotaxin [7] = system: autotaxin; design: method as in PMID 19215222; conditions: cited from earlier work
serum LPAs [8] = assay: Serum LPA concentrations (LC-MS/MS) in treated SJL/J EAE mice; assay type: in vivo; conditions: 35 days after immunization, vs vehicle treated EAE mice
Method: as §2, with “Monoclonal anti-Itga4 antibody treatment (natalizumab) in SJL/J mice consisted in 3 intraperitoneal injections (1x200 μg, 2x 150 μg) on day 11, 14 and 19. The LPAR2 agonist GRI 977143 was administered perorally in cornflakes soaked with 10% sucrose/10% DMSO in water with 100 μg/mouse/d of the drug starting 3d after immunization. Control animals received the respective vehicle.” left out, “Tmax and Cmax were directly taken from the plasma concentration time courses.” left out, “constant. […]” for “constant.”
(§3) Quantitative LPA analysis was performed with liquid chromatography-electrospray ionization-tandem mass spectrometry (LC-ESI-MS/MS) with a hybrid triple quadrupole-ion trap QTrap 5500 mass spectrometer (AB Sciex, Germany) as described without knowledge of clinical data or treatment groups. […] The internal standard method was used for quantification with Analyst Software V1.5 (Applied Biosystems, Germany). […]

serum LPAs [9] = assay: Serum LPA concentrations (LC-MS/MS) in medication subgroups of MS patients; assay type: in vivo, human; conditions: MS patients on prophylactic treatment vs no medication, beta interferon or other drugs
From the text: Human samples and data were available from an observational cross-sectional investigation of 102 multiple sclerosis patients (31 men, 71 women, demographic data Table 1) consecutively recruited from outpatients and inpatients of the Department of Neurology of the Goethe University Hospital Frankfurt, Germany. Data and blood collection was part of the local bio-banking project (Neurological Department of the Goethe University, Frankfurt), adhered to the Declaration of Helsinki and was approved by the Ethics Committees of the Medical Faculty of the Goethe University. Cerebrospinal fluid samples were available from a previous study including 20 MS patients and 10 control patients with other non-inflammatory neurologic diseases. For long-term time course analyses additional 15 patients were recruited and observed up to 3.5 years. […]
as §3

autotaxin [10] = molecular target: T4, autotaxin; assay: Autotaxin lyso-PLD activity ex vivo in primary splenocytes (C17-LPC to C17:0-LPA conversion); assay type: cell-based; conditions: splenocytes from treated EAE mice
Method: The spleens were removed and collected in a sterile wire mesh with 40 μm pore size over a Petri dish half filled with RPMI 1640 media and were gently pressed through the mesh using a 5 ml syringe plunger. The mesh was rinsed over the Petri dish with additional media to remove remaining cells. Disaggregated cells were transferred to a 15 ml Falcon tube and centrifuged at 2,000 rpm for 5 min and washed 2x in RPMI. The cell pellet was resuspended in RPMI, treated with erythrocyte lysis buffer for 10 min at room temperature, followed by centrifugation and resuspension in full medium (RPMI 1640 + 10% FBS + 1% Pen/Strep). Cells were plated in 6-well plates at 3x10^6/2 ml per well. Growth was stimulated with concanavalin A at 1 μg/ml. Cells were kept in an incubator at 37 °C, 95% humidity and 5% CO2 atmosphere and assays were performed after 2d in culture.
The lyso-PLD activity of ATX was measured in primary splenocytes of naïve and EAE mice. Cells were incubated for 2 h in 1.1 ml serum free RPMI 1640 medium and then stimulated for another 2 h with PMA 50 ng/ml and ionomycin 500 ng/ml in serum free medium before the autotaxin substrate, C17-LPC was added (100 μM in 1 μl in DMSO). […] C17-LPC is converted into the unnatural C17:0-LPA, which was analysed in supernatants and crude cell extracts by LC-MS/MS as described above. […]

EC50 (LPAR2 [1]; LPAR2 agonist, COS-1 cells): ~1000 nM | AUC ([2]; calculated from i.p. data): 4260 ng·h/mL | CL ([2]; calculated from i.p. data): 23.5 mL/h | Vd ([2]; calculated from i.p. data): 27.3 mL | Tmax ([2]; plasma, after i.p. administration, SJL/J mice): 10 min | LPAR2 specificity (LPAR1, 2, 3 or 4 [3]): confirmed the LPAR2 specificity
Compound: O=C(O)c1ccccc1SCCCN1C(=O)c2cccc3cccc(c23)C1=O [GRI 977143]
clinical EAE scores (RR-EAE SJL/J mice; 100 μg/mouse/d p.o. starting 3 d after immunization up to 35 d, vs vehicle): significantly lower clinical EAE scores | body weight (RR-EAE SJL/J mice; 100 μg/mouse/d p.o. starting 3 d after immunization, vs vehicle): therapeutic efficacy was also evident | infiltration of the white matter of the lumbar spinal cord with myeloid cells (CD11b positive particles) (RR-EAE SJL/J mice; 100 μg/mouse/d p.o., 36 days after immunization, vs vehicle): much reduced; also recorded: significantly reduced | EC50 (LPAR2 [4]): 1000 to 3000 nM

Emax (LPAR2 [1]; compared with other LPAs): highest Emax values | Emax (LPAR1): highest Emax values
Compound: CCCCCCCC/C=C\CCCCCCCC(=O)OC[C@@H](O)COP(=O)(O)O [LPA18:1, 1-oleoyl-LPA]
specificity (response of mock transduced cells) (LPAR1, 2, 3 or 4 [5]; mock-Gα15 transduced cells as control): most specific

Compound: O=C(CCN1CCN(C(=O)OCc2cc(Cl)cc(Cl)c2)CC1)c1ccc2[nH]c(=O)oc2c1 [PF8380]
LPA plasma concentration (autotaxin [6]): mainly reduced unsaturated LPAs

Compound: CCCCCCCCc1ccc(CCC(N)(CO)CO)cc1 [fingolimod]
clinical EAE scores (RR-EAE SJL/J mice; fingolimod 0.5 mg/kg/day in drinking water from 3 d after immunization): only minor effects | autotaxin inhibition (autotaxin [7]): slow acting autotaxin inhibitor | LPA serum concentration (serum LPAs [8]): additional LPA lowering effect | LPA concentrations in serum (serum LPAs [9]): significantly lower

Compound: CCCCCCCCCCCCCCCCOC[C@@H](O)COP(=O)(O)O [hexadecyl-LPA]
LPAR activation (agonist activity) (LPAR1, 2, 3 or 4 [5]): no effects

Compound: CCCCCCCCCCCCCCCCCCOC[C@@H](O)COP(=O)(O)O [octadecyl-LPA]
LPAR activation (agonist activity) (LPAR1, 2, 3 or 4 [5]): no effects

maximum stimulation effect of PMA/Ionomycin on ATX activity (autotaxin [10]): significantly reduced
Compound: natalizumab: alpha-4 integrin (VLA4) targeting monoclonal antibody
clinical EAE scores (RR-EAE SJL/J mice; 3 i.p. injections at d11 (200 μg), d14, d19 (150 μg)): reduced the clinical scores | LPA serum concentration (serum LPAs [8]): significantly lower LPA levels | LPA concentrations in serum (serum LPAs [9]): significantly lower
